Here are results for two compounds from patent publication US20220369639A1, “Fungicide Mixtures” (LANXESS Deutschland GmbH, priority 2019, published 2022).

Molecules are shown by their SMILES. Like-named read-outs stand apart in the source and are kept apart here.

Assay type in all cases: cell-based
For one assay, the system named is Fusarium solani. Put plainly: Minimum Inhibitory Concentration (MIC) on nutrient agar petri dishes. The source says: (§1) The term synergism is used when the action of a combination of antimicrobial substances is being evaluated.
(§2) The synergism found for the mixtures according to the invention can be determined via the following mathematical mathematical formula (cf. F. C. Kull, P. C. Elisman, H. D.
(§3) Qa=amount of component A in the active substance mixture which achieves the desired effect, i. e. no microbial growth,
(§4) QA=amount of component A which, when used alone, suppresses the growth of the microorganisms,
(§5) Qb=amount of component B in the active substance mixture which suppresses the growth of the microorganisms,
(§6) QB=amount of component B which, when used alone, suppresses the growth of the microorganisms
(§7) If the sum of the ratios for a mixture Qa/QA+Qb/QB=1, additivity is indicated; if it is <1, synergism has occurred; a value of >1 is indicative of antagonism.
(§8) To determine the antimicrobial efficacy and synergy of active ingredients mixtures, the Minimum Inhibitory Concentration (MIC) of the active substances and their respective combinations were determined. The Minimum Inhibitory
(§9) Concentration of a given antimicrobial compound or mixture is the lowest concentration expressed in […] (ppm) that under defined in vitro conditions inhibits the growth of a given micro-organism (for example bacteria, mould fungi, yeasts). The growth of the microorganisms is observed on petri dishes containing a defined nutrient agar. In the case of fungi, typical strains according to this test design for example would be species like those as indicated in tables 1a) and 1b)

A further assay relates to Aspergillus niger. Described as above.
Description: as §1, §2, §3, §4, §5, §6, §7, §8, §9

Assay [1] concerns Fungi Mix composed of the standard ASTM G 21-09 species. Put plainly: Gypsum board mould resistance, ASTM G 21-09 (core protection). Particulars: for Observed growth rating, Fungi Mix: facing papers not treated, 4 weeks at 28-30° C. From the text: The fungicide mixtures as of the present invention and of the comparison example to be tested were made as follows: The respective actives were mixed in their respective weight ratio (see table 2) together with water and 1 wt. % dispersant Tristyrylphenol ethoxylate (in form of Soprophor® S 25), as thickener 0.1 wt. % of Xanthan gum and 1 wt. % wetting agent non-ionic EO/PO-Copolymer (in form of Pluronic 127 F), where the wt. % are based on the entire mixture and were homogenized with a high speed mixer (IKA Ultra Turrax Labor Dispergator) to give an aqueous suspension having a viscosity measured in accordance with CIPAC 192 method of 500-600 mPas and a particle size of the biocides of smaller than 30 μm measured in accordance with the CIPAC 187 method.
For examination of the antifungal performance of the inventive mixtures the various mixtures prepared above were tested. The testing directly made in gypsum boards provides realistic and practically relevant data for evaluation. To achieve such data, gypsum boards were produced in the laboratory. For this purpose, a typical slurry recipe as given below for board production is used.
The gypsum slurry is formed by mixing the dry components and the wet components together. The slurry is then mixed to achieve a homogeneous consistency. The fungicide mixtures as prepared above are then incorporated into the wet gypsum slurry respectively (total amount of actives in ppm see table 2) by adding and thoroughly mixing. For sandwiching the gypsum core, untreated cardboard (without fungicide) with a grammage of appr. 180 g/m^2 was used and after assembly of the plate the hand sheets are dried.
The mould resistance of the gypsum board samples was evaluated according to the test method ASTM G 21-09. Following to this method, the manufactured gypsum boards as described above and after having been cut to an adequate size are placed on an agarplate and superficially are spoiled with fungal spores for a determined period of time of at the most 4 weeks. The respective total amount of actives in ppm based in gypsum/plaster ([…]) can be seen in the table.
Spore suspensions are produced for each fungi (spore concentrations of approximately 10^6/ml). Organisms which are included in ASTM G 21 comprise Aspergillus niger (ATCC 9642), Aureobasidium pullulans (ATCC 15233) Chaetomium globosum (ATCC 6205), Gliocladium virens (ATCC 6459) and Penicillium pinophilium (ATCC 11797) (as pure culture but also as mixed inoculum), however any other fungi species known to be able to grow in gypsum boards may be used in addition or instead. Mineral agar (according to ASTM G21 of 2009) was used as growth media in the agar plates. Before inoculation the gypsum board hand sheets are cut into pieces of appr. 5×5 cm.
For every concentration level, 3 test pieces are used in the test. Each sample is placed in a separate petri dish and then inoculated with the fungi mixture. The samples are then incubated at 28-30° C. for 28 days. Pre-reading of the samples may be performed at approximately 10 days after inoculation. The activity of the treatments may be assessed visually, using a rating system of 0-4 for growth inhibition of fungal growth.
Results: The results as recorded after 4 weeks testing at 28-30° C. according to the requirements of test method ASTM G 21 are summarized in table 2.

`Cc1cc(C)nc(Nc2ccccc2)n1` [PYM, pyrimethanil]: the MIC with Fusarium solani turned out to be 1501 ppm; with Fusarium solani (read-out: MIC), 1000 mg/L; with Aspergillus niger it was 500 ppm; with Aspergillus niger (read-out: MIC) it was 250 mg/L.
Consider `c1ccc2[nH]c(-c3cscn3)nc2c1` [TBZ, thiabendazole], for which the MIC with Fusarium solani (read-out: MIC) is 250 mg/L. Further, the “Observed growth rating, Fungi Mix” value is 4 (Heavy growth (60% to complete coverage)) in assay [1] (25 ppm on dry stucco in gypsum core); 4 (Heavy growth (60% to complete coverage)) in assay [1] (50 ppm on dry stucco in gypsum core); 4 (Heavy growth (60% to complete coverage)) in assay [1] (100 ppm on dry stucco in gypsum core); 4 (Heavy growth (60% to complete coverage)) in assay [1] (200 ppm on dry stucco in gypsum core); 3 (Medium growth (30 to 60%)) in assay [1] (300 ppm on dry stucco in gypsum core). In assay [1] (tested concentration range 25-300 ppm, comparison with TBZ/PYM mixtures), the “Control of fungi growth on gypsum board (interpretation of Table 2)” value is given as “not good enough”.
